Laboratory results from patent US20230265151A1, “GIP/GLP1 CO-AGONIST COMPOUNDS” (priority 2020, published 2023).
Like-named read-outs stand apart in the source and are kept apart here.

Tests used:
Type in all cases: cell-based
hGIPR = molecular target: T1, hGIPR (Homo sapiens, UniProt P48546); test: Functional cAMP formation (HTRF) in HEK-293 clonal cells expressing hGIPR, 0.1% bovine casein, without or with 1.0% human serum albumin; conditions: for EC50: cAMP, incubated at 37° C., 0.1% bovine casein (no human serum albumin), geometric mean; for Emax: 37° C.
T1 construct: expressed in transfected cells
T1 sequence (P48546 22-466): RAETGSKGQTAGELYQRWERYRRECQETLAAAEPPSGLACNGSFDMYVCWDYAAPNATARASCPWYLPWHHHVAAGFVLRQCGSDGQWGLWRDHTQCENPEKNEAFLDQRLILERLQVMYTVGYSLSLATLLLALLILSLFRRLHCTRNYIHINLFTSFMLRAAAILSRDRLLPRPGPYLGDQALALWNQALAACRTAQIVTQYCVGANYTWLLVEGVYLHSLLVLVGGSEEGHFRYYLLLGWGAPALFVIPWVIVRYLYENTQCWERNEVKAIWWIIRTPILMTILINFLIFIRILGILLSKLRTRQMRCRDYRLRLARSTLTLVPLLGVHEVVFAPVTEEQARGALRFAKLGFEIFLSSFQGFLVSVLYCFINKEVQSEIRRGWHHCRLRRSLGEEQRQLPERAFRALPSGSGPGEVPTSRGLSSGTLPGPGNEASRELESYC
Procedure, shortened: (§1)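 Cells were stimulated with peptide for 30 min at 37° C, then intracellular cAMP was measured by competitive HTRF (665/620 nm ratio) and converted to nM using a cAMP standard curve. Relative EC50 and Emax came from four-parameter logistic fits of percent maximal response against peptide concentration.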

hGCGR = molecular target: T2, hGCGR (Homo sapiens, UniProt P47871); test: Functional cAMP formation (HTRF) in HEK-293 clonal cells expressing hGCGR, 0.1% bovine casein, without or with 1.0% human serum albumin; conditions: geometric mean
T2 construct: expressed in transfected cells
Procedure, shortened: as §1

hGLP-1R = hGLP-1R (Homo sapiens, UniProt P43220); test: Functional cAMP formation (HTRF) in HEK-293 clonal cells expressing hGLP-1R, 0.1% bovine casein, without or with 1.0% human serum albumin; set-up: expressed in transfected cells; conditions: for EC50: geometric mean
Procedure, shortened: as §1

[1] = hGCGR EC50, nM (SEM, n), cAMP, incubated at 37° C., 0.1% bovine casein (no human serum albumin)
[2] = HEK293, percent of maximal response to GIP(1-42)NH2, 0.1% bovine casein, arithmetic mean, read-out: hGIPR Emax, % ± SEM
[3] = read-out: hGIPR EC50, nM (SEM, n)
[4] = cAMP, incubated at 37° C., 0.1% bovine casein (no human serum albumin), read-out: hGCGR EC50, nM (SEM, n)
[5] = HEK293, percent of maximal response to GLP-1(7-36)NH2, 37° C., 0.1% bovine casein, arithmetic mean, read-out: hGLP-1R Emax, % ± SEM
[6] = cAMP, incubated at 37° C., 0.1% bovine casein (no human serum albumin), read-out: hGLP-1R EC50, nM (SEM, n)

T2 sequence (P47871 26-477): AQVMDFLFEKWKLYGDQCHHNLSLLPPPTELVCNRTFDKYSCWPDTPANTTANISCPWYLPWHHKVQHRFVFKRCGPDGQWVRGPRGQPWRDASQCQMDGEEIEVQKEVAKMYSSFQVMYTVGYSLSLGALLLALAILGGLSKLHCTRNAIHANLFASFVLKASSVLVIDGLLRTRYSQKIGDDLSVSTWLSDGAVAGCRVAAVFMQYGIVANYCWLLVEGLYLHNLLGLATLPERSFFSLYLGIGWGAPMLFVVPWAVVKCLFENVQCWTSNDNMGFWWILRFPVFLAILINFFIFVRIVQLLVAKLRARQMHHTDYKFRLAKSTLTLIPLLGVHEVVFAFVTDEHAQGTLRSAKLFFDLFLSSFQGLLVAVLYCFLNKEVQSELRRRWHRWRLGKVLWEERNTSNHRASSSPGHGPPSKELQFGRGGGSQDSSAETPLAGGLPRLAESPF
hGLP-1R, sequence (P43220 24-463): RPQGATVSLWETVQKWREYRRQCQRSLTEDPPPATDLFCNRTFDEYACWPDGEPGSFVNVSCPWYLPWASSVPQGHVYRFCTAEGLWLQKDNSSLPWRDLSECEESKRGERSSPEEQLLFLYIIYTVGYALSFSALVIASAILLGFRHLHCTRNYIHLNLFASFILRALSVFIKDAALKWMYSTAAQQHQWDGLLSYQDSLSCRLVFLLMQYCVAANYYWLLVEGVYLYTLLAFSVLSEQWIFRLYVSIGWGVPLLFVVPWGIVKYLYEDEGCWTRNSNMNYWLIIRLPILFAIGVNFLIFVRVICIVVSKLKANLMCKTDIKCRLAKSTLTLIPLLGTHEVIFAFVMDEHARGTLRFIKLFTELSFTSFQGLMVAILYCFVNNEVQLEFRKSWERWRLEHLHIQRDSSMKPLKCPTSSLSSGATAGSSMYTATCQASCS

CC[C@H](C)[C@H](NC(=O)[C@H](CC(C)C)NC(=O)[C@](C)(Cc1ccc(O)cc1)NC(=O)[C@H](CCCCNC(=O)COCCOCCNC(=O)COCCOCCNC(=O)[C@@H](N)CCCCNC(=O)CCCCCCCCCCCCC(=O)O)NC(=O)[C@@H](NC(=O)[C@H](Cc1ccccc1)NC(=O)[C@H](CCC(=O)O)NC(=O)C(C)(C)NC(=O)[C@H](CCC(N)=O)NC(=O)[C@H](C)NC(=O)[C@H](CCCCNC(=O)COCCOCCNC(=O)COCCOCCNC(=O)[C@@H](N)CCCCNC(=O)CCCCCCCCCCCCC(=O)O)NC(=O)[C@H](CCCN)NC(=O)[C@H](CC(=O)O)NC(=O)[C@H](CC(C)C)NC(=O)[C@](C)(CC(C)C)NC(=O)[C@@H](NC(=O)[C@H](CO)NC(=O)[C@H](Cc1ccncc1)NC(=O)[C@H](CC(=O)O)NC(=O)[C@H](CO)NC(=O)[C@@H](NC(=O)[C@](C)(Cc1ccccc1F)NC(=O)[C@@H](NC(=O)CNC(=O)[C@H](CCC(=O)O)NC(=O)C(C)(C)NC(=O)[C@@H](N)Cc1ccc(O)cc1)[C@@H](C)O)[C@@H](C)O)[C@@H](C)CC)[C@@H](C)CC)C(=O)N[C@@H](CCC(=O)O)C(=O)NCC(=O)NCC(=O)N1CCC[C@H]1C(=O)N[C@@H](CO)C(=O)N[C@@H](CO)C(=O)NCC(=O)N[C@@H](C)C(=O)N1CCC[C@H]1C(=O)N1CCC[C@H]1C(=O)N1CCC[C@H]1C(=O)N[C@@H](CO)C(N)=O [Example 160]
EC50 (hGIPR; hGIPR EC50, nM (SEM, n)): 0.0197 nM | EC50 (hGCGR; [1]): > 9950 nM | Emax (hGLP-1R; HEK293, read-out: hGLP-1R Emax, % ± SEM, percent of maximal response to GLP-1(7-36)NH2, 37° C., 0.1% bovine casein, arithmetic mean): 93.6%

CC[C@H](C)[C@H](NC(=O)[C@H](CC(C)C)NC(=O)C(C)(Cc1ccc(O)cc1)NC(=O)[C@H](CCCCNC(=O)[C@@H](N)CCCCNC(=O)CC[C@H](NC(=O)CCCCCCCCCCCCC(=O)O)C(=O)O)NC(=O)[C@@H](NC(=O)[C@H](Cc1ccccc1)NC(=O)[C@H](CCC(=O)O)NC(=O)C(C)(C)NC(=O)[C@H](CCC(N)=O)NC(=O)[C@H](C)NC(=O)[C@H](CCCCNC(=O)[C@@H](N)CCCCNC(=O)CC[C@H](NC(=O)CCCCCCCCCCCCC(=O)O)C(=O)O)NC(=O)[C@H](CCCN)NC(=O)[C@H](CC(=O)O)NC(=O)[C@H](CC(C)C)NC(=O)C(C)(CC(C)C)NC(=O)[C@@H](NC(=O)[C@H](CO)NC(=O)[C@H](Cc1ccncc1)NC(=O)[C@H](CC(=O)O)NC(=O)[C@H](CO)NC(=O)[C@@H](NC(=O)C(C)(Cc1ccccc1F)NC(=O)[C@@H](NC(=O)CNC(=O)[C@H](CCC(=O)O)NC(=O)C(C)(C)NC(=O)[C@@H](N)Cc1ccc(O)cc1)[C@@H](C)O)[C@@H](C)O)[C@@H](C)CC)[C@@H](C)CC)C(=O)N[C@@H](CCC(=O)O)C(=O)NCC(=O)NCC(=O)N1CCC[C@H]1C(=O)N[C@@H](CO)C(=O)N[C@@H](CO)C(=O)NCC(=O)N[C@@H](C)C(=O)N1CCC[C@H]1C(=O)N1CCC[C@H]1C(=O)N1CCC[C@H]1C(=O)N[C@@H](CO)C(N)=O (stereo partly drawn) [Example 161]
Emax (hGIPR; HEK293, read-out: hGIPR Emax, % ± SEM, percent of maximal response to GIP(1-42)NH2, 0.1% bovine casein, arithmetic mean): 94.6 ± 1.21% | EC50 (hGIPR; hGIPR EC50, nM (SEM, n)): 0.0207 nM | EC50 (hGCGR; [1]): > 9950 nM | EC50 (hGLP-1R; hGLP-1R EC50, nM (SEM, n), cAMP, incubated at 37° C., 0.1% bovine casein (no human serum albumin)): 0.203 nM

CC[C@H](C)[C@H](NC(=O)[C@H](CC(C)C)NC(=O)[C@](C)(Cc1ccc(O)cc1)NC(=O)[C@@H](CCC(=O)O)NC(=O)[C@@H](NC(=O)[C@H](Cc1ccccc1)NC(=O)[C@H](CCC(=O)O)NC(=O)C(C)(C)NC(=O)[C@H](CCC(N)=O)NC(=O)[C@H](C)NC(=O)[C@H](CCCCNC(=O)COCCOCCNC(=O)COCCOCCNC(=O)[C@@H](N)CCCCNC(=O)CCCCCCCCCCCCC(=O)O)NC(=O)[C@H](CCCN)NC(=O)[C@H](CC(=O)O)NC(=O)[C@H](CC(C)C)NC(=O)[C@](C)(CC(C)C)NC(=O)[C@@H](NC(=O)C(C)(C)NC(=O)[C@@H](NC(=O)[C@H](CC(=O)O)NC(=O)[C@H](CO)NC(=O)[C@@H](NC(=O)[C@](C)(Cc1ccccc1F)NC(=O)[C@@H](NC(=O)CNC(=O)[C@H](CCC(=O)O)NC(=O)C(C)(C)NC(=O)[C@@H](N)Cc1ccc(O)cc1)[C@@H](C)O)[C@@H](C)O)C(C)C)[C@@H](C)CC)[C@@H](C)CC)C(=O)N[C@@H](CCC(=O)O)C(=O)NCC(=O)NCC(=O)N[C@@H](CCCCNC(=O)COCCOCCNC(=O)COCCOCCNC(=O)[C@@H](N)CCCCNC(=O)CCCCCCCCCCCCC(=O)O)C(=O)N[C@@H](CO)C(=O)N[C@@H](CO)C(=O)NCC(=O)N[C@@H](C)C(=O)N1CCC[C@H]1C(=O)N1CCC[C@H]1C(=O)N1CCC[C@H]1C(=O)N[C@@H](CO)C(N)=O [Example 163]
Emax (hGIPR; [2]): 98.2% | EC50 (hGIPR; [3]): 0.0427 nM | EC50 (hGCGR; [4]): > 9950 nM | Emax (hGLP-1R; [5]): 86.3% | EC50 (hGLP-1R; [6]): 0.199 nM

CC[C@H](C)[C@H](NC(=O)[C@H](CC(C)C)NC(=O)[C@](C)(Cc1ccc(O)cc1)NC(=O)[C@@H](CCC(=O)O)NC(=O)[C@@H](NC(=O)[C@H](Cc1ccccc1)NC(=O)[C@H](CCC(=O)O)NC(=O)C(C)(C)NC(=O)[C@H](CCC(N)=O)NC(=O)[C@H](C)NC(=O)[C@H](CCCCNC(=O)[C@@H](N)CCCCNC(=O)CC[C@H](NC(=O)CCCCCCCCCCCCC(=O)O)C(=O)O)NC(=O)[C@H](CCCN)NC(=O)[C@H](CC(=O)O)NC(=O)[C@H](CC(C)C)NC(=O)[C@](C)(CC(C)C)NC(=O)[C@@H](NC(=O)C(C)(C)NC(=O)[C@@H](NC(=O)[C@H](CC(=O)O)NC(=O)[C@H](CO)NC(=O)[C@@H](NC(=O)[C@](C)(Cc1ccccc1F)NC(=O)[C@@H](NC(=O)CNC(=O)[C@H](CCC(=O)O)NC(=O)C(C)(C)NC(=O)[C@@H](N)Cc1ccc(O)cc1)[C@@H](C)O)[C@@H](C)O)C(C)C)[C@@H](C)CC)[C@@H](C)CC)C(=O)N[C@@H](CCC(=O)O)C(=O)NCC(=O)NCC(=O)N[C@@H](CCCCNC(=O)[C@@H](N)CCCCNC(=O)CC[C@H](NC(=O)CCCCCCCCCCCCC(=O)O)C(=O)O)C(=O)N[C@@H](CO)C(=O)N[C@@H](CO)C(=O)NCC(=O)N[C@@H](C)C(=O)N1CCC[C@H]1C(=O)N1CCC[C@H]1C(=O)N1CCC[C@H]1C(=O)N[C@@H](CO)C(N)=O [Example 164]
Emax (hGIPR; HEK293, 0.1% bovine casein and 1.0% human serum albumin, percent of maximal response to GIP(1-42)NH2, read-out: hGIPR Emax, % ± SEM): 93% | Emax (hGIPR; [2]): 95.8 ± 5.48% | EC50 (hGIPR; [3]): 0.0464 nM | EC50 (hGCGR; 0.1% bovine casein and 1.0% human serum albumin, 37° C., read-out: hGCGR EC50, nM (SEM, n)): > 9950 nM | EC50 (hGCGR; [4]): > 9950 nM | EC50 (hGLP-1R; 0.1% bovine casein and 1.0% human serum albumin, 37° C., read-out: hGLP-1R EC50, nM (SEM, n)): 26.6 nM | Emax (hGLP-1R; HEK293, 0.1% bovine casein and 1.0% human serum albumin, 37° C., percent of maximal response to GLP-1(7-36)NH2, read-out: hGLP-1R Emax, % ± SEM): 95.4% | Emax (hGLP-1R; [5]): 93.8 ± 0.298%

CC[C@H](C)[C@H](NC(=O)[C@H](CC(C)C)NC(=O)[C@](C)(Cc1ccc(O)cc1)NC(=O)[C@@H](CCC(=O)O)NC(=O)[C@@H](NC(=O)[C@H](Cc1ccccc1)NC(=O)[C@H](CCC(=O)O)NC(=O)C(C)(C)NC(=O)[C@H](CCC(N)=O)NC(=O)[C@H](C)NC(=O)[C@H](CCCCNC(=O)[C@@H](N)CCCCNC(=O)[C@@H](N)CCCCNC(=O)CC[C@H](NC(=O)CCCCCCCCCCCCC(=O)O)C(=O)O)NC(=O)[C@H](CCCN)NC(=O)[C@H](CC(=O)O)NC(=O)[C@H](CC(C)C)NC(=O)[C@](C)(CC(C)C)NC(=O)[C@@H](NC(=O)C(C)(C)NC(=O)[C@@H](NC(=O)[C@H](CC(=O)O)NC(=O)[C@H](CO)NC(=O)[C@@H](NC(=O)[C@](C)(Cc1ccccc1F)NC(=O)[C@@H](NC(=O)CNC(=O)[C@H](CCC(=O)O)NC(=O)C(C)(C)NC(=O)[C@@H](N)Cc1ccc(O)cc1)[C@@H](C)O)[C@@H](C)O)C(C)C)[C@@H](C)CC)[C@@H](C)CC)C(=O)N[C@@H](CCC(=O)O)C(=O)NCC(=O)NCC(=O)N[C@@H](CCCCNC(=O)[C@@H](N)CCCCNC(=O)[C@@H](N)CCCCNC(=O)CC[C@H](NC(=O)CCCCCCCCCCCCC(=O)O)C(=O)O)C(=O)N[C@@H](CO)C(=O)N[C@@H](CO)C(=O)NCC(=O)N[C@@H](C)C(=O)N1CCC[C@H]1C(=O)N1CCC[C@H]1C(=O)N1CCC[C@H]1C(=O)N[C@@H](CO)C(N)=O [Example 165]
Emax (hGIPR; [2]): 96.1% | EC50 (hGCGR; [4]): > 9950 nM | Emax (hGLP-1R; [5]): 94.3% | EC50 (hGLP-1R; [6]): 0.291 nM
